Values of other authors, collected in PMC10464202, “Discovery of novel JAK1 inhibitors through combining machine learning, structure-based pharmacophore modeling and bio-evaluation” (Journal of Translational Medicine, 2023).

Target: JAK1 (Homo sapiens, UniProt P23458)
Details: JAK1 inhibitors obtained by literature search; read-out: IC50 of training set (Hiphop)

Chain of JAK1 (P23458 whole entry): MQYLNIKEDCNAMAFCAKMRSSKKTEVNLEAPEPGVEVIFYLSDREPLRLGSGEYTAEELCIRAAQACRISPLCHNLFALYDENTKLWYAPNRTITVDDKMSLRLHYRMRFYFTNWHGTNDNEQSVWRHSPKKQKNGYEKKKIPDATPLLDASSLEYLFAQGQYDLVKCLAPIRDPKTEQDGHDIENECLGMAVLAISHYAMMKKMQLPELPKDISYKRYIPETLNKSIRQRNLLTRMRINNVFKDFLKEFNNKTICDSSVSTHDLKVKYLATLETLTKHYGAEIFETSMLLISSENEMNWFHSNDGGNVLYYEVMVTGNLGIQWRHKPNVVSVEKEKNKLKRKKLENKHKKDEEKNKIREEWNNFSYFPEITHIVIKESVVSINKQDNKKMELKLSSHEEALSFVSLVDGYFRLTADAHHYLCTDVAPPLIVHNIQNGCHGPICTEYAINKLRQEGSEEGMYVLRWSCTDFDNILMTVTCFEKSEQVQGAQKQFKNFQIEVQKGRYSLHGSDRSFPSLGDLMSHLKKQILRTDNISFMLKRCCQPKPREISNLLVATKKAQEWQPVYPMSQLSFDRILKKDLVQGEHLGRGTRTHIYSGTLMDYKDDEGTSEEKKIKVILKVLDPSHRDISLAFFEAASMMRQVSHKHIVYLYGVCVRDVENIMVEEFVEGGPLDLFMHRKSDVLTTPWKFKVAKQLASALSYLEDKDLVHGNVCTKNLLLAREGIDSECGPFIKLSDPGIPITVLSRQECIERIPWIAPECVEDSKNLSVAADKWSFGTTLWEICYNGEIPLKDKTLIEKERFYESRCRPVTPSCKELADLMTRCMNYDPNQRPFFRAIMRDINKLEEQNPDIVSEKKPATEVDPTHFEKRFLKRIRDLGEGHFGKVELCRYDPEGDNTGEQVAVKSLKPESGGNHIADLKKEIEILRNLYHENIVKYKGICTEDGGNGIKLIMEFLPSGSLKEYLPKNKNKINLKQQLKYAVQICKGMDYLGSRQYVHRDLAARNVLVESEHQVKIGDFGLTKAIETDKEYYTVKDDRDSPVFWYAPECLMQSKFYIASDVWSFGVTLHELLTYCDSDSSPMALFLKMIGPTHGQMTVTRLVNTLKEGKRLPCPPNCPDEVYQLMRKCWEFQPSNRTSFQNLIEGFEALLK

Question: For `Cc1ccc(C(=O)Nc2cccc3c(-c4nc(Nc5cnn(C)c5)ncc4C)c[nH]c23)c(C)n1` [Compound 5], which IC50 is on record?
Answer: The IC50 was 4 nM.
